Experimental data from patent US20190375708A1 (VenatoRx Pharmaceuticals, Inc., priority 2018, published 2019).

Key:
[1] = system: HBV replication in HepAD38 cells; assay: Anti-HBV replication assay in HepAD38 cells (QPCR of extracellular HBV DNA); assay type: cell-based, HBV (genotype D, serotype ayw); conditions: Hepatitis B virus, 168 h, 7 days incubation, extracellular HBV DNA by QPCR, read-out: Anti-HBV EC50
Experimental: The anti-HBV activity of the Capsid Assembly Modulators (CAMs) was evaluated in a cell based assay utilizing the human hepatoma cell line HepAD38 (Ladner, S K., et al., 1998). HepAD38 cells were derived from the parental line, HepG2, that were stably transfected with a construct containing an HBV genome (genotype D, serotype ayw) under the control of a tetracycline repressible CMV promoter. Upon removal of tetracycline, viral pre-genomic RNA (pgRNA) and mRNAs are expressed and infectious viral particles are assembled and secreted into the culture medium providing a reliable, robust system to measure multiple steps of the HBV life cycle. Disruption of capsid formation results in reduced levels of DNA-containing virus particles that are released into the culture supernatant. To quantify the effect of CAMs on HBV replication, we developed a sensitive QPCR-based assay that measures extracellular HBV DNA levels upon treatment of HepAD38 cells with various concentrations of test compounds.
HepAD38 cells were maintained in DMEM/F12 medium containing 10% FBS, 400 μg/mL G418 and 0.3 μg/mL tetracycline (tet+ media) to maintain repression of HBV replication. To evaluate each compound, HepAD38 cells were seeded into 24-well collagen coated culture plates (Corning BioCoat) at a density of 200,000 cells per well in 1 mL of medium without tetracycline (tet-media) and allowed to adhere overnight at 37° C., 5% CO2 in a humidified incubator. The following day, media was refreshed and a dose range of each compound was prepared by performing 1 log10 serial dilutions in 100% DMSO at 200× the desired assay concentration. Dilutions were then added to the cells resulting in a final dose range of 1 μM to 10 μM and the plates were returned to the incubator. Following 7 days of incubation, culture supernatants were harvested and HBV DNA levels were evaluated by QPCR and compared to the vehicle treated control wells (i.e. DMSO alone).
To quantify HBV DNA levels, cell culture supernatants were diluted 1:10 in sterile, nuclease-free water (Gibco). The diluted supernatants were subsequently added to a PCR master mix containing 1× Roche Light Cycler Master Mix, 0.5 μM forward primer, 0.5 μM reverse primer (Fwd: 5′-[…] (SEQ ID NO 1); Rev: 5′-[…] (SEQ ID NO 2)), 0.2 μM Roche Universal Probe Library Probe 25. The volume was brought to 20 μL with nuclease-free water and amplification of the HBV target sequence was performed using a Roche LightCycler 480 QPCR instrument. PCR extended out to 45 cycles with each cycle consisting of a denaturation step at 95° C. for 10 sec., followed by an annealing step at 60° C. for 10 sec. and a brief extension step at 72° C. for 1 sec.
Extracellular HBV DNA levels, expressed in copies/mL, were determined by comparison to a standard curve (10^2-10^9 copies/mL) using the Roche LightCycler analysis software. These values were subsequently converted to percent inhibition of HBV replication by dividing the HBV DNA levels in the experimental samples with those obtained from the vehicle control (˜1-2×10^5 copies/mL). Potency, expressed as an EC50 (the effective concentration required to inhibit 50% of HBV replication), was calculated from the dose-response curve using a 4-parameter non-linear regression analysis (GraphPad Prism). The nucleoside analog inhibitor entecavir was used as a positive control to validate each assay run. The EC50 value of entecavir in the HepAD38 assay was 0.5 nM, as previously reported in the literature.

[2] = In vitro cytotoxicity assay (MTT cell viability) in HepG2 cells; assay type: cell-based, human; conditions: human
Experimental: To evaluate antiviral selectivity, the cytotoxic activity of each compound was determined using a standard cell viability assay performed on the parental HepG2 cell line. Cell viability was determined by measuring the conversion of 3-(4,5-dimethylthiazol-2-yl)-2,5-diphenyltetrazolium bromide (MTT) to the insoluble formazan salt crystal that occurs in live cells. Briefly, HepG2 cells were seeded in 96-well plates at a density of 20,000 cells per well in EMEM+10% FBS (complete growth medium) and allowed to adhere overnight in a 37° C., 5% CO2 humidified incubator. The next day, test agents were prepared by performing 8 half-log10 serial dilutions in 100% DMSO at 200× the final desired concentration in the assay. Compounds were tested over a range of concentrations from 30 μM to 1.0 nM in the assay. HepG2 cells were incubated in the presence of various concentrations of CAMs for 7 days in a 37° C., 5% CO2 humidified incubator. At the completion of the 7-day incubation period, MTT reagent was added to each well and the mixture was incubated for an additional 3-4 hours. At the completion of the incubation period, all wells were aspirated to remove the culture medium. The formazan crystals were solubilized from the cell monolayers with 100% DMSO. Plates were briefly mixed on an orbital shaker and absorbance was measured at 492 nm using a Perkin-Elmer EnVision multi-label plate reader. All absorbance values were converted to a percentage of the signal obtained from the vehicle treated controls. Absorbance values at 492 nm are directly proportional to the number of viable cells present in the sample. A CC50 value (cytotoxic concentration that results in loss of 50% cell viability) was calculated from the dose-response curve by 4-parameter, non-linear regression analysis using the GraphPad Prism software. The positive control compound, staurosporine, reduced the viability of HepG2 cells in a dose-dependent manner (CC50=100 nM).

Structure (SMILES) | EC50 [1] [µM] | CC50 at 7 days [2] [µM]
Cc1cc(NC(=O)c2c(C)c(C(=O)C(=O)N[C@@H]3CCOC[C@H]3O)n(C)c2C)ccc1F [Example 149, N-(4-fluoro-3-methylphenyl)-5-(2-(((3S,4R)-3-hydroxytetrahydro-2H-pyran-4-yl)amino)-2-oxoacetyl)-1,2,4-trimethyl-1H-pyrrole-3-carboxamide] | < 0.05 | > 30
CCCOC1(CNC(=O)C(=O)c2c(C)c(C(=O)Nc3ccc(F)c(C)c3)c(C)n2C)CCCCC1 [Example 336, N-(4-fluoro-3-methylphenyl)-1,2,4-trimethyl-5-(2-oxo-2-(((1-propoxycyclohexyl)methyl)amino)acetyl)-1H-pyrrole-3-carboxamide] | < 0.05 | 5 to 30
Cc1cc(NC(=O)c2c(C)c(C(=O)C(=O)N[C@H](C(N)=O)C(C)(C)C)n(C)c2C)ccc1F [Example 39, (S)-5-(2-((1-amino-3,3-dimethyl-1-oxobutan-2-yl)amino)-2-oxoacetyl)-N-(4-fluoro-3-methylphenyl)-1,2,4-trimethyl-1H-pyrrole-3-carboxamide] | 0.5 to 1 | > 30
Cc1noc([C@@H](C)NC(=O)C(=O)c2c(Cl)c(C(=O)Nc3ccc(F)c(F)c3)c3n2CCCC3)n1 [Example 517, (R)-2-chloro-N-(3,4-difluorophenyl)-3-(2-((1-(3-methyl-1,2,4-oxadiazol-5-yl)ethyl)amino)-2-oxoacetyl)-5,6,7,8-tetrahydroindolizine-1-carboxamidde] | 0.05 to 0.499 | 5 to 30
Cc1cc(NC(=O)c2c(C)c(C(=O)C(=O)NC(C)(C)C)n(C)c2Cl)ccc1F [Example 386, 5-(2-(tert-butylamino)-2-oxoacetyl)-2-chloro-N-(4-fluoro-3-methylphenyl)-1,4-dimethyl-1H-pyrrole-3-carboxamide] | > 1 | 5 to 30
CNC(=O)C(=O)c1c(C)c(C(=O)Nc2ccc(F)c(C)c2)c(C)n1C [Example 242, N-(4-fluoro-3-methylphenyl)-1,2,4-trimethyl-5-(2-(methylamino)-2-oxoacetyl)-1H-pyrrole-3-carboxamide] | 0.05 to 0.499 | > 30
Cc1cc(NC(=O)c2c(C)c(C(=O)C(=O)NC3(CO)CCOC3)n(C)c2C)ccc1F (stereo not drawn) [Example 13, N-(4-fluoro-3-methylphenyl)-5-(2-((3-(hydroxymethyl)tetrahydrofuran-3-yl)amino)-2-oxoacetyl)-1,2,4-trimethyl-1H-pyrrole-3-carboxamide] | < 0.05 | > 30
Cc1cc(NC(=O)c2c(C)c(C(=O)C(=O)NC(CC(C)C)c3nn[nH]n3)n(C)c2C)ccc1F (stereo not drawn) [Example 80, N-(4-fluoro-3-methylphenyl)-1,2,4-trimethyl-5-(2-((3-methyl-1-(2H-tetrazol-5-yl)butyl)amino)-2-oxoacetyl)-1H-pyrrole-3-carboxamide] | 0.05 to 0.499 | > 30
Cc1cc(NC(=O)c2c(C)c(C(=O)C(=O)NCCc3c(C)[nH][nH]c3=O)n(C)c2C)ccc1F [Example 650, N-(4-fluoro-3-methylphenyl)-1,2,4-trimethyl-5-(2-((2-(5-methyl-3-oxo-2,3-dihdyro-1H-pyrazol-4-yl)ethyl)amino)-2-oxoacetyl)-1H-pyrrole-3-carboxamide] | 0.05 to 0.499 | > 30
O=C(NC1(CO)CC(F)(F)C1)C(=O)c1c(Cl)c(C(=O)Nc2ccc(F)c(F)c2)c2n1CCC2 [Example 581, 6-chloro-5-(2-((3,3-difluoro-1-(hydroxymethyl)cyclobutyl)amino)-2-oxoacetyl)-N-(3,4-difluorophenyl)-2,3-dihydro-1H-pyrrolizine-7-carboxamide] | < 0.05 | 5 to 30
COC(=O)[C@H](NC(=O)C(=O)c1c(C)c(C(=O)Nc2ccc(F)c(C)c2)c(C)n1C)[C@H](C)O [Example 28, methyl (2-(4-((4-fluoro-3-methylphenyl)carbamoyl)-1,3,5-trimethyl-1H-pyrrol-2-yl)-2-oxoacetyl)-D-threoninate] | < 0.05 | > 30
O=C(NC1(CO)CCC1)C(=O)c1c(Cl)c(C(=O)Nc2ccc(F)c(F)c2)c2n1CCOC2 [Example 584, 7-chloro-N-(3,4-difluorophenyl)-6-(2-((1-(hydroxymethyl)cyclobutyl)amino)-2-oxoacetyl)-3,4-dihydro-1H-pyrrolo[2,1-c][1,4]oxazine-8-carboxamide] | < 0.05 | 5 to 30
COC(=O)[C@H](NC(=O)C(=O)c1c(C)c(C(=O)Nc2ccc(F)c(C)c2)c(C)n1C)C1CCCCC1 [Example 56, methyl (R)-2-cyclohexyl-2-(2-(4-((4-fluoro-3-methylphenyl)carbamoyl)-1,3,5-trimethyl-1H-pyrrol-2-yl)-2-oxoacetamido)acetate] | < 0.05 | 0.5 to 4.99
Cc1cc(NC(=O)c2c(C)c(C(=O)C(=O)N[C@H]3CC[C@@H](CO)CC3)n(C)c2C)ccc1F [Example 676, N-(4-fluoro-3-methylphenyl)-5-(2-(((1s,4s)-4-(hydroxymethyl)cyclohexyl)amino)-2-oxoacetyl)-1,2,4-trimethyl-1H-pyrrole-3-carboxamide] | < 0.05 | > 30
Cc1cc(NC(=O)c2c(C)c(C(=O)C(=O)NC3CCN(c4cccnc4)CC3)n(C)c2C)ccc1F [Example 663, N-(4-fluoro-3-methylphenyl)-1,2,4-trimethyl-5-(2-oxo-2-((1-(pyridin-3-yl)piperidin-4-yl)amino)acetyl)-1H-pyrrole-3-carboxamide] | < 0.05 | > 30
Cc1cc(NC(=O)c2c(C)c(C(=O)C(=O)N[C@H](CO)[C@@H](C)O)n(C)c2C)ccc1F [Example 143, 5-(2-(((2R,3R)-1,3-dihydroxybutan-2-yl)amino)-2-oxoacetyl)-N-(4-fluoro-3-methylphenyl)-1,2,4-trimethyl-1H-pyrrole-3-carboxamide] | < 0.05 | > 30
Cc1c(C(=O)Nc2ccc(F)c(Cl)c2)c(C)n(C)c1C(=O)C(=O)NC(C)(C)CO [Example 189, N-(3-chloro-4-fluorophenyl)-5-(2-((1-hydroxy-2-methylpropan-2-yl)amino)-2-oxoacetyl)-1,2,4-trimethyl-1H-pyrrole-3-carboxamide] | < 0.05 | > 30
Cc1cc(NC(=O)c2c(C)c(C(=O)C(=O)NC(C)(C)c3nc(CN(C)C)no3)n(CCF)c2C)ccc1F [Example 202, 5-(2-((2-(3-((dimethylamino)methyl)-1,2,4-oxadiazol-5-yl)propan-2-yl)amino)-2-oxoacetyl)-N-(4-fluoro-3-methylphenyl)-1-(2-fluoroethyl)-2,4-dimethyl-1H-pyrrole-3-carboxamide] | 0.05 to 0.499 | > 30
